Data taken from paper PMC6627331, “Identification of Small Molecule Inhibitors of Staphylococcus aureus RnpA” (Antibiotics, 2019).
Values after ≈ are worked out from the molar mass of the structure shown.

Molecular target: T1, S. aureus RNase P (RnpA + rnpB) (Staphylococcus aureus, UniProt P0A0H5)
T1 construct: hexahistidine (His6) (N); made in house; host or cells: E. coli BL21 (DE3), plasmid pEXP5-nt
T1 sequence (P0A0H5 1-117): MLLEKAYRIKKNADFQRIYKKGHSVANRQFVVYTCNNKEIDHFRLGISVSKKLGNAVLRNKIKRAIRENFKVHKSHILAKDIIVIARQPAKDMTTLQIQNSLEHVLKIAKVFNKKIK
Assay: RnpA-dependent RNase P in vitro ptRNA^Tyr processing assay
Assay type: biochemical
Conditions: SAR figures; in vitro ptRNA^Tyr processing; read-out: pIC50 = processing IC50 (converted)
Protocol: S. aureus RNase P activity assays were performed according to conditions described previously. Briefly, ptRNA^Tyr and rnpB RNA species were first denatured by heating to 95 °C for 5 min then slow cooled to room temperature. RNase P was reconstituted by mixing an equal molar ratio of rnpB and RnpA for 15 min at 37 °C. Precursor tRNA processing inhibition reactions were performed by mixing 1.25 pmol of reconstituted RNase P (RnpA + rnpB) with an equal volume of 2× low salt buffer (50 mM Tris-HCl pH 8.0, 5 mM MgCl2) in the presence of DMSO (negative control) or the indicated compound (≤500 µM) and incubated for 5 min at 37 °C. 5 pmol ptRNA^Tyr was added and the mixture was incubated at 37 °C 15 min. Reactions were stopped by adding 2× RNA loading dye and heating at 65 °C for 10 min. Each sample was electrophoresed in a 7 M urea/8% polyacrylamide gel then stained with ethidium bromide. The Biorad EZ Gel Doc imaging system was used to visualize the RNA and relative abundance of the mature tRNA^Tyr band (% processing) in the negative control or in samples containing the indicated compounds and analyzed using Biorad Image Lab densitometry software. The inhibitory activity of the indicated compounds were calculated as a % inhibition using the following equation: […].
To assess IC50, % RNase P processing inhibition was plotted against compound concentration and a linear best fit equation was generated to calculate the IC50.

| SMILES | IC50 [µM] |
| --- | --- |
| Cc1ccc(NC(=O)N2CCCCC2C)cc1Cl (stereo not drawn) [JC2c] | > 500 |
| CCC1CCCCN1C(=O)Nc1ccccc1 (stereo not drawn) [JC3c] | > 500 |
| CCC1CCCCN1C(=O)Nc1ccc(Br)cc1 (stereo not drawn) [JC3e] | > 500 |
| CCC1CCCCN1C(=O)Nc1cccc(C)c1 (stereo not drawn) [JC3f] | > 500 |
| O=C(Nc1cccc(Cl)c1)N1CCCCCC1 [JC5b] | > 500 |
| O=C(Nc1ccc(Cl)cc1)N1CCCCCC1 [JC5c] | > 500 |

More lines, now with the values ahead:

| IC50 [µM] | SMILES |
| --- | --- |
| > 500 | CC1CCN(C(=O)Nc2cccc(Cl)c2)CC1 [JC1b] |
| > 500 | CC1CCCCN1C(=O)Nc1ccccc1 (stereo not drawn) [JC2b] |
| 300 | O=C(Nc1cc(Cl)cc(Cl)c1)N1CCCCC1 [JC4] |
| > 500 | CN1CCN(C(=O)Nc2cc(Cl)cc(Cl)c2)CC1 [JC6] |
| > 500 | CCN1CCN(C(=O)Nc2cc(Cl)cc(Cl)c2)CC1 [JC7] |
| > 500 | CCCN1CCN(C(=O)Nc2cc(Cl)cc(Cl)c2)CC1 [JC8] |
| 2 | O=C(Nc1ccccc1Cl)c1c(NC(=O)C(F)(F)F)sc2c1CCCCC2 [JR2] |
| 7 | O=C(Nc1cccc(Cl)c1)c1c(NC(=O)C(F)(F)F)sc2c1CCCCC2 [JR3] |

Same assay, conditions: in vitro ptRNA^Tyr processing; read-out: Processing IC50

| IC50 [µM] | SMILES |
| --- | --- |
| ≥ 450 | CN1CCN(C(=O)Nc2cc(Cl)cc(Cl)c2)CC1 [JC6] |
| ≥ 450 | CCN1CCN(C(=O)Nc2cc(Cl)cc(Cl)c2)CC1 [JC7] |
| ≥ 450 | CCCN1CCN(C(=O)Nc2cc(Cl)cc(Cl)c2)CC1 [JC8] |

Molecular target: T2, S. aureus RnpA (Staphylococcus aureus, UniProt P0A0H5)
T2 construct: hexahistidine (His6) (N); made in house; host or cells: E. coli BL21 (DE3), plasmid pEXP5-nt
T2 sequence (P0A0H5 1-117): T1 sequence (P0A0H5 1-117)
Assay: RnpA-mediated in vitro spa mRNA degradation assay
Assay type: biochemical
Conditions: SAR figures, read-out: dIC50 = degradation IC50
Protocol: RnpA-mediated RNA degradation assays were performed as previously described. Briefly, 1 pmol of spa mRNA was incubated with 5 pmol RnpA at 37 °C for 30 min in reaction buffer (50 mM Tris-HCl pH 8.0, 2 mM NaCl, 2 mM MgCl2) in the absence or presence of the indicated compound (≤500 µM). The inhibitory effects of the test compounds were calculated using Biorad ImageLab densitometry software to measure the signal intensity of the spa band in the negative control (spa alone), positive control (RnpA + spa + DMSO), and experimental samples (RnpA + spa + test compound) separated on a 1.2% formaldehyde-agarose gel. Background signal from the positive control sample sometimes resulted due to incomplete degradation of transcripts. Thus, the signal intensity of the positive control was taken into account when calculating the percent inhibition. The raw signals from the positive (+RnpA) and negative (-RnpA) controls were converted into percentage, by normalizing the positive control (+RnpA) signal to 0% RnpA inhibition and the negative control (-RnpA) to 100% RnpA inhibition. Similarly, the raw signals from the test compounds were reported as percent RnpA inhibition using the following equation: [(experimental−positive control)/(negative control−positive control)] × 100. […] To assess IC50, % RnpA degradation inhibition was plotted against compound concentration; a linear best fit equation was generated and utilized to calculate the IC50.

| SMILES | IC50 [µM] |
| --- | --- |
| Cc1ccc(NC(=O)N2CCCCC2C)cc1Cl (stereo not drawn) [JC2c] | > 500 |
| CCC1CCCCN1C(=O)Nc1ccccc1 (stereo not drawn) [JC3c] | > 500 |
| CCC1CCCCN1C(=O)Nc1ccc(Br)cc1 (stereo not drawn) [JC3e] | > 500 |
| CCC1CCCCN1C(=O)Nc1cccc(C)c1 (stereo not drawn) [JC3f] | > 500 |
| O=C(Nc1cccc(Cl)c1)N1CCCCCC1 [JC5b] | > 500 |
| O=C(Nc1ccc(Cl)cc1)N1CCCCCC1 [JC5c] | > 500 |

Results, then the molecule that gave them:

| IC50 [µM] | SMILES |
| --- | --- |
| > 500 | CC1CCN(C(=O)Nc2cccc(Cl)c2)CC1 [JC1b] |
| > 500 | CC1CCCCN1C(=O)Nc1ccccc1 (stereo not drawn) [JC2b] |
| > 500 | CN1CCN(C(=O)Nc2cc(Cl)cc(Cl)c2)CC1 [JC6] |
| > 500 | CCN1CCN(C(=O)Nc2cc(Cl)cc(Cl)c2)CC1 [JC7] |
| 450 | CCCN1CCN(C(=O)Nc2cc(Cl)cc(Cl)c2)CC1 [JC8] |
| 100 | O=C(Nc1ccccc1Cl)c1c(NC(=O)C(F)(F)F)sc2c1CCCCC2 [JR2] |
| 25 | O=C(Nc1cccc(Cl)c1)c1c(NC(=O)C(F)(F)F)sc2c1CCCCC2 [JR3] |

Same assay, conditions: read-out: Degradation IC50

| IC50 [µM] | SMILES |
| --- | --- |
| > 500 | O=C(Nc1cc(Cl)cc(Cl)c1)N1CCCCC1 [JC4] |
| ≥ 450 | CN1CCN(C(=O)Nc2cc(Cl)cc(Cl)c2)CC1 [JC6] |
| ≥ 450 | CCN1CCN(C(=O)Nc2cc(Cl)cc(Cl)c2)CC1 [JC7] |
| ≥ 450 | CCCN1CCN(C(=O)Nc2cc(Cl)cc(Cl)c2)CC1 [JC8] |

Test system: S. aureus UAMS-1
Assay: Minimum inhibitory concentration (MIC) testing
Assay type: cell-based, Staphylococcus aureus
Conditions: Staphylococcus aureus, UAMS1, 16 h, S. aureus UAMS-1, 16 h in MHB; read-out: MIC
Protocol: Minimum inhibitory concentration (MIC) testing was performed using to Clinical & Laboratory Standards Institute (CLSI) guidelines. Accordingly, individual wells of a 96-well microtiter plate were inoculated with 10^4 colony forming units (CFU) of S. aureus UAMS-1 containing two-fold increasing concentrations (0 to 256 μg·mL^−1) of the indicated antibiotic or putative RnpA inhibitor compound, and incubated at 37 °C for 16 h in MHB. The MIC was defined as the lowest concentration of compound in which there was no visible bacterial growth in the well.

| SMILES | MIC [µg/mL] |
| --- | --- |
| Cc1ccc(NC(=O)N2CCCCC2C)cc1Cl (stereo not drawn) [JC2c] | > 256 |
| CCC1CCCCN1C(=O)Nc1ccccc1 (stereo not drawn) [JC3c] | > 256 |
| CCC1CCCCN1C(=O)Nc1ccc(Br)cc1 (stereo not drawn) [JC3e] | > 256 |
| CCC1CCCCN1C(=O)Nc1cccc(C)c1 (stereo not drawn) [JC3f] | > 256 |
| O=C(Nc1cccc(Cl)c1)N1CCCCCC1 [JC5b] | > 256 |
| O=C(Nc1ccc(Cl)cc1)N1CCCCCC1 [JC5c] | > 256 |

Second part, the molecule after the results:

| MIC [µg/mL] | SMILES |
| --- | --- |
| > 256 | CC1CCN(C(=O)Nc2cccc(Cl)c2)CC1 [JC1b] |
| > 256 | CC1CCCCN1C(=O)Nc1ccccc1 (stereo not drawn) [JC2b] |
| 256 (≈ 937 µM) | O=C(Nc1cc(Cl)cc(Cl)c1)N1CCCCC1 [JC4] |
| 8 (≈ 27.8 µM) | CN1CCN(C(=O)Nc2cc(Cl)cc(Cl)c2)CC1 [JC6] |
| 8 (≈ 26.5 µM) | CCN1CCN(C(=O)Nc2cc(Cl)cc(Cl)c2)CC1 [JC7] |
| 1 (≈ 3.16 µM) | CCCN1CCN(C(=O)Nc2cc(Cl)cc(Cl)c2)CC1 [JC8] |
| 0.25 to 1 (≈ 0.6 to 2.4 µM) | O=C(Nc1ccccc1Cl)c1c(NC(=O)C(F)(F)F)sc2c1CCCCC2 [JR2] |
| 0.25 to 1 (≈ 0.6 to 2.4 µM) | O=C(Nc1cccc(Cl)c1)c1c(NC(=O)C(F)(F)F)sc2c1CCCCC2 [JR3] |

Same assay, conditions: Staphylococcus aureus, UAMS1, SAR figures; S. aureus UAMS-1; read-out: MIC

| SMILES | MIC [µg/mL] |
| --- | --- |
| Cc1ccc(NC(=O)N2CCCCC2C)cc1Cl (stereo not drawn) [JC2c] | > 256 |
| CCC1CCCCN1C(=O)Nc1ccccc1 (stereo not drawn) [JC3c] | > 256 |
| CCC1CCCCN1C(=O)Nc1ccc(Br)cc1 (stereo not drawn) [JC3e] | > 256 |
| CCC1CCCCN1C(=O)Nc1cccc(C)c1 (stereo not drawn) [JC3f] | > 256 |
| O=C(Nc1cccc(Cl)c1)N1CCCCCC1 [JC5b] | > 256 |
| O=C(Nc1ccc(Cl)cc1)N1CCCCCC1 [JC5c] | > 256 |

The next lines start with the values.

| MIC [µg/mL] | SMILES |
| --- | --- |
| > 256 | CC1CCN(C(=O)Nc2cccc(Cl)c2)CC1 [JC1b] |
| > 256 | CC1CCCCN1C(=O)Nc1ccccc1 (stereo not drawn) [JC2b] |
| 256 (≈ 937 µM) | O=C(Nc1cc(Cl)cc(Cl)c1)N1CCCCC1 [JC4] |
| 8 (≈ 27.8 µM) | CN1CCN(C(=O)Nc2cc(Cl)cc(Cl)c2)CC1 [JC6] |
| 8 (≈ 26.5 µM) | CCN1CCN(C(=O)Nc2cc(Cl)cc(Cl)c2)CC1 [JC7] |
| 1 (≈ 3.16 µM) | CCCN1CCN(C(=O)Nc2cc(Cl)cc(Cl)c2)CC1 [JC8] |
| 0.5 (≈ 1.2 µM) | O=C(Nc1ccccc1Cl)c1c(NC(=O)C(F)(F)F)sc2c1CCCCC2 [JR2] |
| 0.25 (≈ 0.6 µM) | O=C(Nc1cccc(Cl)c1)c1c(NC(=O)C(F)(F)F)sc2c1CCCCC2 [JR3] |

Test system: HepG2 cells
Assay: MTT human cell cytotoxicity testing
Assay type: cell-based
Conditions: 4× MIC exposure for 24 h, MTT
Protocol: Human HepG2 hepatocytes were seeded in individual wells of a 96-well cell-culture treated microtiter plate at a concentration of 1 × 10^5 cells per well and incubated in Dulbecco’s Modified Eagle Medium (DMEM) supplemented with 10% fetal bovine serum at 37 °C with 5% carbon dioxide overnight. Cells were then treated with DMSO (negative control) or the indicated agent for 24 h. MTT Cell Proliferation Assay Kits were used to assess viability according to the manufacturer’s recommendations (American Type Culture Collection; Manassas, VA, USA).

| SMILES | % HepG2 Cell Survival [%] |
| --- | --- |
| CCCN1CCN(C(=O)Nc2cc(Cl)cc(Cl)c2)CC1 [JC8] | 109.2 |

Same assay, conditions: SAR figures; 4× MIC exposure for 24 h

| SMILES | MTT = % HepG2 cell survival [%] |
| --- | --- |
| O=C(Nc1cc(Cl)cc(Cl)c1)N1CCCCC1 [JC4] | 71.4 |
| CN1CCN(C(=O)Nc2cc(Cl)cc(Cl)c2)CC1 [JC6] | 61.6 |
| CCN1CCN(C(=O)Nc2cc(Cl)cc(Cl)c2)CC1 [JC7] | 75.7 |
| CCCN1CCN(C(=O)Nc2cc(Cl)cc(Cl)c2)CC1 [JC8] | 109 |
| O=C(Nc1ccccc1Cl)c1c(NC(=O)C(F)(F)F)sc2c1CCCCC2 [JR2] | 85.3 |
| O=C(Nc1cccc(Cl)c1)c1c(NC(=O)C(F)(F)F)sc2c1CCCCC2 [JR3] | 90.4 |
